Measured values taken from patent US5919464A, “Treatment of aberrant cellular states with biomodulators” (University of New Mexico, priority 1993, dated 1999).

Experiments:
[1] = tested on: human peripheral blood leukocytes (HPBLs); experiment: HPBL plaque forming cell (PFC) assay / IgG production in vitro (differentiation); assay type: cell-based; conditions: HPBL; for Stimulation of IgG Production, Percent: at the stimulating concentration
Description: (§1) C. […] This model is used to correlate the effects of biomodulators on the expression of immune response in vitro. The plaque assay disclosed in this reference is used for the determination of the effect of biomodulators on the specificity, class and subclass of individual clones.
(§2) A. Purification of PWM and separation of the differentiative and proliferative functions Pokeweed Mitogen (PWM) and three of its isomitogens, Pa-1 and Pa-5, which are primarily differentiative in nature, and Pa-2 which is primarily proliferative, were prepared according to the method of Waxdal, supra, except that the iso-mitogens were finally purified by isoelectric focusing.
Human peripheral blood leukocytes were cultured in a standard tissue culture medium. Aliquots of these cultured cells (1,000,000 cells/ml medium) were cultured for 6 hours, and the specified amount of Formula II compound was added; the cells were then cultured for an additional 90 hours. Sheep red blood cells (SRBC) conditioned with class-specific (IpG) goat anti-human antiserum (1:400) for 2 hours; then guinea pig complement (2%) for 2 hours were conjugated to Protein A as described in detail in Radioimmunoimaging and Radioimmunotherapy, Eds.

[2] = tested on: human peripheral blood leukocytes (HPBLs); experiment: HPBL 3H-thymidine incorporation (proliferation); assay type: cell-based; design: reference not given here
Description: as §1, §2

HMGCoA reductase = biological target: T1, HMGCoA reductase (Rattus norvegicus, UniProt P51639); experiment: inhibition of rat liver HMGCoA reductase activity; assay type: biochemical; design: from tissue; host or cells: rat liver; conditions: rat liver
T1 sequence (P51639 1-887): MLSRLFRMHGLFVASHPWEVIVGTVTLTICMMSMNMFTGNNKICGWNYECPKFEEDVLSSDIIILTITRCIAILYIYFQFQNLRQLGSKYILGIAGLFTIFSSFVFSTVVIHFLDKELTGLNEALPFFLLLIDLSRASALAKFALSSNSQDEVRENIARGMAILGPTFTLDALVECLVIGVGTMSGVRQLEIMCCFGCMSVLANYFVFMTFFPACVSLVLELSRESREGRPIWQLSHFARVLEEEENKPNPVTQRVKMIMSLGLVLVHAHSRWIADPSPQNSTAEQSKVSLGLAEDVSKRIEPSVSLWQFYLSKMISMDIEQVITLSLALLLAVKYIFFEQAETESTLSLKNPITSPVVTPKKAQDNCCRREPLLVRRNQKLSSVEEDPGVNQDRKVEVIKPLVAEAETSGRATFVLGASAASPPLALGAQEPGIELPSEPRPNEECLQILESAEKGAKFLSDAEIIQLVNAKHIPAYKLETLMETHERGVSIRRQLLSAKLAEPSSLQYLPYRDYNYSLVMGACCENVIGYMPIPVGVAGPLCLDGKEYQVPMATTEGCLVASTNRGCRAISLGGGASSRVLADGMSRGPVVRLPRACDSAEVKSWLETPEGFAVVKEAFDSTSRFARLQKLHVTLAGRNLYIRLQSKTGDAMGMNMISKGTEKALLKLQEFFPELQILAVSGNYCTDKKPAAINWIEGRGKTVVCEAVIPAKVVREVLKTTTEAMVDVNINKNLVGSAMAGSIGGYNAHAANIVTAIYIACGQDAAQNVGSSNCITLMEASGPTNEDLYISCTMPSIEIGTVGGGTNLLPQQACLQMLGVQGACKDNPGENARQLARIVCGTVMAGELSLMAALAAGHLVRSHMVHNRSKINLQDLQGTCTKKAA
Description: reductase activity; data obtained according to Example IA.

canine glioma = experiment: in vivo inhibition of canine glioma in dog brain (NMR)
Description: Canine glioma was implanted surgically into the brains of four outbred dogs (2×10^6 cells). This procedure normally causes death by tumor growth in 14-28 days.
Simultaneous with implantation, the dogs were each placed on a regimen of compounds according to the invention, Compounds IIa', IIe' and TF004 in various dosages were administered on alternate days (M, W, F) by I.P. injection in phosphate buffered saline.
Tumor progress was assessed at weekly intervals by NMR, employing GdDTPA as imaging agent. This method illuminates vascularization at the surface of the tumor, and provides images which correlate well with neuropathological observations.

P-815 mastocytoma cells = experiment: P-815 cytotoxic T lympholysis / cell mediated lympholysis (CML), spleen cells treated in culture; assay type: cell-based, mouse; conditions: hydrocortisone 2 mg given day -2; hydroxyurea 10^-5M; in words
Description: In this case the P-815 is injected into the H-2 incompatible host and in the Brunner and Cerotini model an antigen specific lympholysis event occurs with an optimum on day 11 at an effector/target ratio of 100:1 with 30% lysis If the spleens of the injected animals are removed on day three there is no observable cytotoxicity; however, if the spleen cells are treated with biomodulator (in this case PWM at 100 ng) there is an enormous increase in the cytotoxicity event. […] The slope represents a measure of the efficiency of kill and in the biomodulator treated cells is approximately 1.6 versus 0.24 for the control antigen driven response on day 11. This represents a seven fold increase in simple cytotoxicity efficiency. Again this is concentration dependent and the kinetics of the response are such that if the cells are left in culture for times which approximate the in vivo 11 day optimum then the lysis values approach the untreated controls. […]
P 815 mastocytoma cells are grown in culture or as an ascites (DBA H-2/d) and injected into C57BL/6J mice (H-2/b). […] The specificity of the response is assessed by testing the cytotoxicity against EL-4 cells ([…]) which are NK insensitive and histoincompatible with the original target. […]
Seven effector/target ratios are tested and the percent lysis calculated. […]

canine glioma tumors = experiment: canine glioma tumor growth in nude rats, various biomodulators; assay type: in vivo; conditions: in words
Description: C57 BL/6 mice were injected I.M. with B-16 melanoma cells, maintained in culture in the right flank or shoulder. Tumor growth was monitored on a daily basis by physical measurement and by MRI/MRS on a weekly basis. Treatment routes were via intraperitoneal injection using various CAD between 1 μg and 0.001 μg per animal on a M, W, F injection schedule. The animals were terminated by CO2 when the tumors had become 1.0 cm in diameter. Lung metastases were counted.
Various biomodulators were tested in vivo for their effects on canine glioma tumors established and monitored as above for mice, but in nude rats. […] FIGS. 29-30 show the progression of the tumors over time with treatment with, respectively, PWM, Sw, CAD, HHD-2, HHD-3, HHD-4, and HHD-7.

[3] = 1 ng/kg I.P., treatment begun on day of implantation

IC50 (HMGCoA reductase) [nM]	SMILES	Stimulation of IgG Production, Concentration [1] [pM]	Stimulation of IgG Production, Percent [1] [%]	Proliferation ((3H) thymidine incorporation into DNA) [2]	also measured
2	CC(C)OC(=O)C[C@H](O)C[C@H](O)/C=C/c1c(C(C)C)nc(-c2ccccc2)n1-c1ccc(F)cc1 [IId, reference compound]	100000	320	0.66	
	CC(C)c1c(/C=C/C(O)CC(O)CC(=O)O)n(-c2ccc(F)cc2)c2ccccc12 (stereo not drawn) [TF-004]				day of complete regression (canine glioma; [3]): ≤ 21 days; day of substantial regression (canine glioma; [3]): ≤ 15 days; day of complete regression (canine glioma; treatment begun on Day 11): ≤ 30 days; day of substantial regression (canine glioma; treatment begun on Day 11): ≤ 21 days
3150	CC(C)OC(=O)C[C@@H](O)C[C@@H](O)/C=C/c1c(C(C)C)nc(-c2ccccc2)n1-c1ccc(F)cc1 [IIa]	200	1700	0.98	Inhibitory Concentration (inhibiting nonspecific IgG production below normal production) [1]: none found
	C[C@]12CCC(=O)C=C1CC[C@@H]1[C@@H]2[C@@H](O)C[C@@]2(C)[C@H]1CC[C@]2(O)C(=O)CO [Hydrocortisone]				influence on the biomodulator effect on CML (P-815 mastocytoma cells): reduced the biomodulator effect
	CC(C)OC(=O)C[C@H](O)C[C@@H](O)/C=C/c1c(C(C)C)nc(-c2ccccc2)n1-c1ccc(F)cc1 [HHD-7]				canine glioma tumor regression in nude rats (canine glioma tumors): showed the best regression
	CC(C)c1nc(-c2ccccc2)n(-c2ccc(F)cc2)c1/C=C/[C@H](O)C[C@H](O)CC(=O)O [TF-002]				day by which tumor regressed (canine glioma; pre-treated, 10 ng/kg I.P. M, W, F): ≤ 19 days; later tumor status (canine glioma; pre-treated, 10 ng/kg, in words): free of tumor
	NC(=O)NO [Hydroxyurea]				influence on the biomodulator effect on CML (P-815 mastocytoma cells): does not inhibit the biomodulator effect on CML
1350	CC(C)OC(=O)C[C@@H](O)C[C@H](O)/C=C/c1c(C(C)C)nc(-c2ccccc2)n1-c1ccc(F)cc1 [IIb]	200	1700	1.0	Inhibitory Concentration (inhibiting nonspecific IgG production below normal production) [1]: none found
	CC(C)OC(=O)C[C@H](O)C[C@H](O)/C=C/c1c(C(C)C)nc(-c2ccccc2)n1-c1ccc(F)cc1 [HHD-3]				canine glioma tumor regression in nude rats (canine glioma tumors): showed no regression effect, just delay of the control growth pattern
